{"source": "patent US4443619A", "about": "“Chlorocitric acids” (Hoffmann-La Roche Inc., priority 1981, dated 1984)", "key": {"[1]": {"test": "Effect of stereoisomers of chlorocitric acid on food consumption in meal-fed rats (Example 14)", "type": "in vivo, Charles River female rats", "conditions": "mean ± S.E.", "procedure": "Animals were fasted 48 hr, then meal-fed the 70% glucose diet described by A. C. […] Following 5 to 12 days alimentation on the meal-feeding regimen, rats were dosed with the appropriate compounds orally by intubation 1/2 hr before the 3 hr meal. Food cups were weighed immediately after the meal. The control group consisted of 5 to 10 rats, while the experimental group consisted of 4 to 6 rats."}, "[2]": {"test": "Food consumption of three diets in meal-fed rats (Example 15)", "type": "in vivo, Charles River female rats", "conditions": "mean ± S.E.", "procedure": "Charles River female rats (Charles River Breeding Laboratories, Wilmington, Mass.), weighing 170 to 200 g, were individually housed in wire-bottomed cages in a temperature-regulated (22° C.) light-controlled room (12 hr light, 6 a.m. to 6 p.m. and 12 hr dark, 6 p.m. to 6 a.m.). Animals were fasted 48 hr, then meal-fed the indicated diets from 8 to 11 a.m. Following 5 to 12 days alimentation on the meal-feeding regimen, rats were dosed with the appropriate compounds orally by intubation 1/2 hr before the 3 hr meal. Food cups were weighed immediately after the 1st, 2nd and 3rd hr of the meal. The control groups consisted of 8 to 10 rats and the experimental group considered of 5 to 6 rats."}, "[3]": {"test": "Anorectic activities of stereoisomers: 3-day food consumption and body weight gain in meal-fed rats", "type": "in vivo, Charles River female rats", "conditions": "1.32 mmoles/kg oral, 3 days, mean ± S.E.", "procedure": "Charles River female rats (Charles River Breeding Laboratories, Wilmington, Mass.), weighing 196 to 210 g, were individually housed in wire-bottomed cages in a temperature-regulated (22° C.) light-controlled room (12 hr light, 6 a.m. to 6 p.m. and 12 hr dark, 6 p.m. to 6 a.m.). Animals were fasted 48 hr, then meal-fed a 70% glucose diet from 8 to 11 a.m. Following 5 to 12 days alimentation on the meal-feeding regimen, rats were dosed with the appropriate compounds orally by intubation 1/2 hr before the 3 hr meal for 3 days. The total food consumption and body weight gained during the 3 day period were determined. The control group consisted of 16 rats, while the experimental group consists of 8 rats."}, "[4]": {"test": "Body weight gain in 8 hour meal-fed Zucker rats (Example 18)", "type": "in vivo, lean (Fa/-) and obese (fa/fa)", "conditions": "0.66 mmoles/kg b.i.d. oral, 6 days, mean ± S.E.", "procedure": "Lean (Fa/-) Zucker rats and obese (fa/fa) Zucker rats of both sexes were individually housed in wire-bottomed cages in a temperature-regulated (22° C.) light-controlled room (12 hr light, 6 a.m. to 6 p.m. and 12 hr dark, 6 p.m. to 6 a.m.). The animals were fed a high carbohydrate (70% glucose) diet ad libitum for 13 days, dosed with the indicated compounds by oral intubation for 9 days and allowed to recover for 3 days. The animals were then meal fed from 8 a.m. to 4 p.m. for a period of 5 days, following which they were continued on the same meal schedule for an additional 6 days. During the 6-day period, the animals were administered the indicated compounds by oral intubation at 8 a.m. and 12 p.m. Body weight gain during the 6-day period was determined."}, "[5]": {"test": "Body weight and food intake in meal-fed rats, 16 day study (Example 19)", "type": "in vivo, Charles River female rats", "conditions": "16 days", "procedure": "Two month old Charles River female rats (Charles River Breeding Laboratories, Wilmington, Mass.) were individually housed in wire-bottomedcages in a temperature-regulated (22° C.) light-controlled room (12 hr light, 6 a.m. to 6 p.m. and 12 hr dark, 6 p.m. to 6 a.m.). […] (1) control, (2) (-)-threo-chlorocitric acid (1.0 mmoles/kg, 227 mg/kg) administered by oral intubation 30 min before the 3 hr meal, and (3) (-)-threo-chlorocitric acid (1.1 mmoles/kg, 250 mg/kg) as a dietary admixture for the 3 hr meal. Treatment was continued for 16 days. The amount of body weight gained and food consumed during the study were determined."}, "[6]": {"test": "Total body fat in meal-fed rats, oral administration, 17 day study (Example 22)", "type": "in vivo, Charles River female rats", "conditions": "17 days", "procedure": "Two month old Charles River female rats (Charles River Breeding Laboratories, Wilmington, Mass.) were individually housed in wire-bottomedcages in a temperature-regulated (22° C.) light-controlled room (12 hr light, 6 a.m. to 6 p.m. and 12 hr dark, 6 p.m. to 6 a.m.). […] On the 8th day, the animals were administered water or (-)-threo-chlorocitric acid at the indicated concentration by oral intubation 30 min before the 3 hr meal. Treatment was continued for 17 days. Food cups were weighed immediately after the meal. After 17 days of treatment, rats were killed by decapitation and blood was removed. […] C. Sullivan, et al, Am. J. Clinical Nutrition, 30 767 (1977). […] Total carcass and lipid data are expressed in grams and percentages of carcass weight."}, "[7]": {"conditions": "20% Corn Oil, 0.33 mmoles (75 mg)/kg oral"}, "[8]": {"conditions": "20% Corn Oil, 0.66 mmoles (150 mg)/kg oral"}, "[9]": {"conditions": "70% Glucose, 0.33 mmoles (75 mg)/kg oral"}, "[10]": {"conditions": "70% Glucose, 0.66 mmoles (150 mg)/kg oral"}, "[11]": {"conditions": "Chow, 0.33 mmoles (75 mg)/kg oral"}, "[12]": {"conditions": "Chow, 0.66 mmoles (150 mg)/kg oral"}, "[13]": {"conditions": "dietary admixture, 1.1 mmoles (250 mg)/kg/day"}, "[14]": {"conditions": "oral intubation, 1.0 mmoles (227 mg)/kg/day"}, "[15]": {"conditions": "G-70, 0.05 mmoles (114 mg)/kg oral (so in the source)"}, "[16]": {"conditions": "G-70, 0.25 mmoles (57 mg)/kg oral"}, "[17]": {"conditions": "G-70, 1.00 mmoles (227 mg)/kg oral"}}, "data": [{"smiles": "O=C(O)C[C@@](O)(C(=O)O)[C@@H](Cl)C(=O)O", "note": "[(-)-threo-Chlorocitric acid, (-)-threo-chlorocitric acid]", "values": [{"measurement": "Food consumption", "setting": "[1]; 0.66 mmoles/kg oral, control 8.2 ± 1.2", "result": "4.8 ± 0.7", "unit": "g"}, {"measurement": "Food consumption", "setting": "[1]; 2.63 mmoles/kg oral, control 13.5 ± 0.8", "result": "2.2 ± 0.5", "unit": "g"}, {"measurement": "Food intake, 1st hr", "setting": "[2]; [7]", "result": "4.0 ± 0.6", "unit": "g"}, {"measurement": "Food intake, 2nd hr", "setting": "[2]; [7]", "result": "1.6 ± 1.1", "unit": "g"}, {"measurement": "Food intake, 3rd hr", "setting": "[2]; [7]", "result": "1.3 ± 0.5", "unit": "g"}, {"measurement": "Food intake, Total", "setting": "[2]; [7]", "result": "6.8 ± 1.6", "unit": "g"}, {"measurement": "Food intake, 1st hr", "setting": "[2]; [8]", "result": "3.6 ± 0.6", "unit": "g"}, {"measurement": "Food intake, 2nd hr", "setting": "[2]; [8]", "result": "2.2 ± 0.4", "unit": "g"}, {"measurement": "Food intake, 3rd hr", "setting": "[2]; [8]", "result": "1.3 ± 0.4", "unit": "g"}, {"measurement": "Food intake, Total", "setting": "[2]; [8]", "result": "7.1 ± 0.9", "unit": "g"}, {"measurement": "Food intake, 1st hr", "setting": "[2]; [9]", "result": "2.2 ± 0.5", "unit": "g"}, {"measurement": "Food intake, 2nd hr", "setting": "[2]; [9]", "result": "2.2 ± 0.5", "unit": "g"}, {"measurement": "Food intake, 3rd hr", "setting": "[2]; [9]", "result": "3.8 ± 0.4", "unit": "g"}, {"measurement": "Food intake, Total", "setting": "[2]; [9]", "result": "8.2 ± 1.1", "unit": "g"}, {"measurement": "Food intake, 1st hr", "setting": "[2]; [10]", "result": "2.7 ± 0.4", "unit": "g"}, {"measurement": "Food intake, 2nd hr", "setting": "[2]; [10]", "result": "1.7 ± 0.3", "unit": "g"}, {"measurement": "Food intake, 3rd hr", "setting": "[2]; [10]", "result": "2.3 ± 0.5", "unit": "g"}, {"measurement": "Food intake, Total", "setting": "[2]; [10]", "result": "6.7 ± 0.7", "unit": "g"}, {"measurement": "Food intake, 1st hr", "setting": "[2]; [11]", "result": "4.2 ± 1.4", "unit": "g"}, {"measurement": "Food intake, 2nd hr", "setting": "[2]; [11]", "result": "1.6 ± 0.4", "unit": "g"}, {"measurement": "Food intake, 3rd hr", "setting": "[2]; [11]", "result": "2.3 ± 0.7", "unit": "g"}, {"measurement": "Food intake, Total", "setting": "[2]; [11]", "result": "8.1 ± 2.1", "unit": "g"}, {"measurement": "Food intake, 1st hr", "setting": "[2]; [12]", "result": "3.6 ± 0.9", "unit": "g"}, {"measurement": "Food intake, 2nd hr", "setting": "[2]; [12]", "result": "1.4 ± 0.2", "unit": "g"}, {"measurement": "Food intake, 3rd hr", "setting": "[2]; [12]", "result": "1.9 ± 0.4", "unit": "g"}, {"measurement": "Food intake, Total", "setting": "[2]; [12]", "result": "6.9 ± 1.2", "unit": "g"}, {"measurement": "3-Day Body Weight Gain", "setting": "[3]", "result": "-22.4 ± 2.3", "unit": "g"}, {"measurement": "3-Day Food Consumption", "setting": "[3]", "result": "10.5 ± 1.3", "unit": "g"}, {"measurement": "Body Weight Gain", "setting": "[4]; Fa/- lean", "result": "-20.7 ± 2.2", "unit": "g"}, {"measurement": "Body Weight Gain", "setting": "[4]; fa/fa obese", "result": "-33.5 ± 3.1", "unit": "g"}, {"measurement": "CBWG (cumulative body weight gain)", "setting": "[5]; [13]", "result": "-8 ± 6", "unit": "g"}, {"measurement": "CFC (cumulative food consumption)", "setting": "[5]; [13]", "result": "157 ± 9", "unit": "g"}, {"measurement": "FBW (final body weight)", "setting": "[5]; [13]", "result": "184 ± 8", "unit": "g"}, {"measurement": "CBWG (cumulative body weight gain)", "setting": "[5]; [14]", "result": "-27 ± 4", "unit": "g"}, {"measurement": "CFC (cumulative food consumption)", "setting": "[5]; [14]", "result": "139 ± 6", "unit": "g"}, {"measurement": "FBW (final body weight)", "setting": "[5]; [14]", "result": "163 ± 5", "unit": "g"}, {"measurement": "Carcass Lipid (% carcass), % of control", "setting": "[6]; [15]", "result": "82 % of control"}, {"measurement": "Carcass Lipid total, % of control", "setting": "[6]; [15]", "result": "67 % of control"}, {"measurement": "Carcass Lipid, % carcass", "setting": "[6]; [15]", "result": "4.43 ± 0.56", "unit": "% carcass"}, {"measurement": "Carcass Lipid, total", "setting": "[6]; [15]", "result": "7.85 ± 1.03", "unit": "g"}, {"measurement": "Carcass Weight", "setting": "[6]; [15]", "result": "177 ± 2", "unit": "g"}, {"measurement": "Carcass Lipid (% carcass), % of control", "setting": "[6]; [16]", "result": "84 % of control"}, {"measurement": "Carcass Lipid total, % of control", "setting": "[6]; [16]", "result": "76 % of control"}, {"measurement": "Carcass Lipid, % carcass", "setting": "[6]; [16]", "result": "4.58 ± 0.09", "unit": "% carcass"}, {"measurement": "Carcass Lipid, total", "setting": "[6]; [16]", "result": "8.98 ± 0.30", "unit": "g"}, {"measurement": "Carcass Weight", "setting": "[6]; [16]", "result": "196 ± 4", "unit": "g"}, {"measurement": "Carcass Lipid (% carcass), % of control", "setting": "[6]; [17]", "result": "64 % of control"}, {"measurement": "Carcass Lipid total, % of control", "setting": "[6]; [17]", "result": "50 % of control"}, {"measurement": "Carcass Lipid, % carcass", "setting": "[6]; [17]", "result": "3.48 ± 0.68", "unit": "% carcass"}, {"measurement": "Carcass Lipid, total", "setting": "[6]; [17]", "result": "5.95 ± 1.28", "unit": "g"}, {"measurement": "Carcass Weight", "setting": "[6]; [17]", "result": "169 ± 6", "unit": "g"}]}]}
